Measurements reported in patent US12325744B2, “Methods for reducing post-operative cognitive dysfunction (POCD)” (The Kennedy Trust for Rheumatology Research, priority 2010, dated 2025).
“Also recorded” adds a separate entry of the source.

Tests used:
IL-1β = assay: Hippocampal IL-1β by ELISA after tibial surgery; type: in vivo; conditions: wild type mice, 6 h (minocycline, enrofloxacin) or 24 h (IL-1Ra) after surgery
Protocol: IL-6, TNF-α and IL-1β were measured by ELISA^19 (Biosource, CA; Bender Medsystem, CA, respectively). Hippocampal IL-1β was measured by ELISA (Bender Medsystem, CA), as previously described^20. To confirm reliability of dilution linearity and spike recovery cytokine measurement were also performed in mice in which inflammation was induced with i.p. LPS (0111:B4, Invivogen, CA). (For further details please refer to supplemental methods).
Under terminal anesthesia with pentobarbital, each mouse was euthanized and the brain quickly removed following decapitation. The hippocampus was dissected under microscopy on a frosted glass plate placed on top of crushed ice, then snap frozen and stored at −80° C. until processing. Each hippocampus was added to Iscove's culture medium containing 5% fetal calf serum (FCS) and a cocktail of enzyme inhibitors (in mM: 100 amino-n-caproic acid, 10 EDTA, 5 benzamidine-HCl, and 0.2 phenylmethylsulfonyl fluoride). […] IL-1β was measured in the supernatant from hippocampal extracts, which were appropriately diluted prior to measurement to fall on the linear portion of the sigmoid curve, using a commercially available ELISA kit (Bender Medsystem, CA). […]
Cytokine analyses: Systemic and hippocampal IL-1β was measured by ELISA (Bender Medsystem, CA; 1.2 pg/ml of sensitivity), as previously described (12).

C57-BL6 mice = assay: Delay fear conditioning, auditory-cued test after tibial surgery; type: in vivo; conditions: wild type mice, surgery with IL-1Ra pre-treatment
Protocol: Fear conditioning tests. Mice were conditioned 30 minutes or 3 days prior to intervention by training with two cycles of tone and foot-shock pairings. In delay fear conditioning a foot-shock was administered during the last 2 seconds of each 20 seconds-lasting tone.
In trace fear conditioning, the foot-shock onset, lasting 2 seconds as in the previous paradigm, followed a 20-second gap after each tone termination. Three days after conditioning, mice were placed back in the original conditioning chamber for 270 seconds, where no tone or shock were presented, to assess recall of contextual fear memory. After 3 h mice were placed in a novel environment (different context from training) to test for auditory-cued memory. Following an initial baseline period of 135 seconds during which freezing was scored in absence of noise, the auditory cue was presented for the final 135 seconds of the test, and freezing was again recorded. (For further details please refer to supplemental methods).
The behavioral study was conducted using a conditioning chamber (Med. Associates Inc., St. Albans, VT, USA). The back- and the side-walls of the chamber were made of aluminium, whereas the front door and the ceiling were of transparent Plexiglas. The floor of the chamber consisted of 36 stainless steel rods (1 mm diameter) spaced 0.5 cm apart (center-to-center). […]

HMGB-1 = assay: Plasma HMGB-1 by ELISA after LPS injection; type: in vivo, mice; conditions: LPS 1 mg/kg i.p.; IL-1Ra 100 mg/kg s.c. immediately before LPS
Protocol: Treatment. LPS derived from Escherichia Coli endotoxin ([…], InvivoGen, USA, 1 mg/kg) was dissolved in normal saline and injected intraperitoneally. IL-1Ra (Amgen, Anakinra 100 mg/kg, Nederlands) was given subcutaneously immediately before LPS administration. Dose response curve from LPS or IL-1Ra was obtained from our pilot studies to provoke or to suppress moderate degree of microglia activation respectively. Control animals were injected with equivalent volumes (0.1 ml) of saline. Mice from each treatment group were randomly assigned for assessment of either cytokine response or cognitive behavior, in order to obviate possible confounding effects of behavioral testing on inflammatory markers.
Plasma cytokine measurement. Blood was sampled transcardially after thoracotomy under terminal anesthesia 30 minutes, 2, 6, 12 hours and 1, 3, 7 days after experiments in the different cohorts and centrifuged at 3,600 rpm for 7 minutes at 4° C. Blood samples taken from animals without any interventions severed as controls. Plasma samples were stored at −20° C. for further analysis. Plasma cytokine and HMGB-1 were measured using commercially available ELISA kits from Biosource, CA and Shino-test Corporation, Japan, respectively. The sensitivities of the assays were <3 pg/ml for TNFα, <7 pg/ml for IL-1β, <3 pg/ml for IL-6 and 1 ng/ml for HMGB-1.

For “IL-1Ra: IL-1 receptor antagonist (Amgen, Anakinra)”, the “Hippocampal IL-1β expression after surgery, effect of treatment” value (IL-1β) was “did not increase hippocampal microgliosis (FIG. 6, A-B-C) or expression of IL-1β; also recorded: Hippocampal IL-1β did not significantly increase”, the “Freezing in the auditory-cued test after delay fear conditioning” value (C57-BL6 mice) was “showed no difference; also recorded: There was no difference between the groups” and the “Plasma HMGB-1 after LPS, effect of IL-1Ra” value (HMGB-1) was “had no effects on HMGB-1 release in plasma; also recorded: had no effects on HMGB-1 levels”.
